From patent publication US6844343B1, “N-substituted 4-aminopteridines, synthesis and use thereof as pharmaceutical agent” (Vasopharm Biotech GmbH, priority 1999, dated 2005)

Experiments:
[1] = test system: intact rat alveolar macrophages; details: cited from earlier work
[2] = target: NOS-III (Homo sapiens, UniProt P29474); assay: Inhibition of human NOS isoforms: NOS-III; format: biochemical
Experimental: (§1) After mixing of the components on ice, the reaction mixture was immediately incubated in a water bath at 37° C. for 15 minutes. […] After this incubation time, the reaction was stopped by addition of 900 μl of ice-cold “stop buffer” (20 mM sodium acetate, 2 mM EDTA, pH 5.5), and the mixture (total volume now 1.0 ml) was placed on ice. To remove the unreacted ^3H-L-arginine, the mixture was loaded onto an ion exchange column with 0.8 ml of Dowex AG 50 WX-8 (100-200 mesh) which has previously been washed and equilibrated with 2 ml of stop buffer. After loading of the sample, the column was eluted twice with 1 ml of water each time. The flow-through of the sample and the eluate were collected in scintillation vessels and […] (total volume 3 ml). 9 ml of scintillator solution were added to the 3 ml of aqueous measurement solution, and the homogeneous mixture was measured in a Tricarb 2500 TR (Packard) liquid scintillation counter for 1 minute for each sample. […] In addition, the relative selectivities of the antipterin inhibitors for the three known human NOS isoforms were measured. So doing, the IC50 values for NOS-II/NOS-I and NOS-III/NOS-I were formed (compare Table 2).

[3] = test system: purified NO synthase from pig cerebellum or from pig liver; assay: Activity assay of purified NOS (3H-L-arginine to 3H-L-citrulline conversion); format: biochemical; details: substance 100 μM, in the presence of 2 μM tetrahydrobiopterin, 15 min at 37° C.
Experimental: The inhibition of the activity of purified nitric oxide synthase (NOS) by compounds of the general formula I can be determined as follows.
(§2) In this activity assay the L-citrulline which is a coproduct of the formation of NO by purified NOS is quantitatively measured. ^3H-radiolabeled L-arginine is employed as substrate of the enzyme reaction and is converted into ^3H-L-citrulline and NO. After completion of the enzyme incubation, generated L-citrulline is removed from unused L-arginine by ion exchange chromatography from the reaction mixture; the ^3H activity measured by liquid scintillation then is corresponds to the amount of L-citrulline, which is a direct measure of the activity of NOS.
The basic medium for carrying out the enzyme reaction is TE buffer (triethanolamine, EDTA, pH 7.0).
The final volume of each incubation is 100 μl. The reaction mixture is obtained by mixing the following 6 components on ice: • 1. “REA-Mix” (pH 7.0) which contains triethanolamine, calcium chloride, magnesium chloride, EDTA, L-arginine, calmodulin and flavin adenine dinucleotide (FAD); • 2. freshly prepared stock solution of β-nicotinamide adenine dinucleotide phosphate, reduced form (NADPH); • 3. (6R)-5,6,7,8-tetrahydro-L-biopterin dihydro-chloride stock solution (BH4) or —for experiments without BH4-instead TE buffer; • 4. purified NO synthase from pig cerebellum or from pig liver; • 5.
(§3) After mixing of the components on ice, the reaction mixture was immediately incubated in a water bath at 37° C. for 15 minutes. […] After this incubation time, the reaction was stopped by addition of 900 μl of ice-cold “stop buffer” (20 mM sodium acetate, 2 mM EDTA, pH 5.5), and the mixture (total volume now 1.0 ml) was placed on ice. To remove the unreacted ^3H-L-arginine, the mixture was loaded onto an ion exchange column with 0.8 ml of Dowex AG 50 WX-8 (100-200 mesh) which has previously been washed and equilibrated with 2 ml of stop buffer. After loading of the sample, the column was eluted twice with 1 ml of water each time. The flow-through of the sample and the eluate were collected in scintillation vessels and […] (total volume 3 ml). 9 ml of scintillator solution were added to the 3 ml of aqueous measurement solution, and the homogeneous mixture was measured in a Tricarb 2500 TR (Packard) liquid scintillation counter for 1 minute for each sample. […] Each substance was tested for an antagonistic effect in a concentration of 100 μM in the presence of 2 μM tetrahydrobiopterin, and for an agonistic effect on NOS in the absence of tetrahydrobiopterin.
All incubations were carried out on triplicates. Each experiment was repeated three times with different enzyme preparations.

[4] = target: NOS-II (Homo sapiens, UniProt P35228); assay: Inhibition of human NOS isoforms: NOS-II; format: biochemical
Experimental: as §1

[5] = target: NOS-I (Homo sapiens, UniProt P29475); assay: Inhibition of human NOS isoforms: NOS-I; format: biochemical
Experimental: as §2, §3
In addition, the relative selectivities of the antipterin inhibitors for the three known human NOS isoforms were measured. So doing, the IC50 values for NOS-II/NOS-I and NOS-III/NOS-I were formed (compare Table 2).

[6] = test system: purified NO synthase from pig cerebellum or from pig liver; assay: Activity assay of purified NOS (3H-L-arginine to 3H-L-citrulline conversion); format: biochemical; details: incubated in the presence of 5 kU/ml catalase for 45 minutes

Compound	Activity (% of control) ([2]; human NOS-III)	Remaining activity (% of Vmax) [3]	Activity (% of control) ([4]; human NOS-II)	Activity (% of control) [5]	IC50 [6] [µM]	further results
C[C@H](O)C(=O)C1=Nc2c(nc(N)[nH]c2=O)NC1 [sepiapterin]	–	–	–	–	–	inhibition of NO production [1]: inhibition of NO production
Nc1nc(NCC2CCCCC2)c2c(n1)NCC(c1ccc(Cl)cc1)N2 (centres unmarked) [Example 49, 2-amino-4-(cyclohexylmethylamino)-6-(4-chloro-phenyl)-5,6,7,8-tetrahydropteridine dihydro-chloride hydrate]	18 ± 1 % of control	0 % of Vmax	78 ± 6 % of control	0 ± 0.1 % of control	–	–
CCCN(CCC)c1nc(N)nc2c1NC(c1ccc(OC)cc1)CN2.Cl.Cl.O.O (centres unmarked) [Example 47, 2-amino-4-(di-n-propylamino)-6-(4-methoxyphenyl)-5,6,7,8-tetrahydropteridine dihydrochloride dihydrate]	31 ± 3 % of control	0 % of Vmax	78 ± 0.4 % of control	0 ± 0.1 % of control	–	–
Nc1nc2ncc(C(=O)O)nc2c(=O)[nH]1 [Pterin-6-carboxylic acid]	–	–	–	–	–	inhibition of NO production [1]: no effect
Nc1nc(N(Cc2ccccc2)Cc2ccccc2)c2nc(-c3ccc(Cl)cc3)cnc2n1.O.O [Example 20, 2-amino-4-(dibenzylamino)-6-(4-chlorophenyl)-pteridine dihydrate]	–	0 % of Vmax	–	–	3.5	–
2-amino-4-(dibenzylamino)-6-(3,4-dimethoxyphenyl)-pteridine hemihydrate [Example 22]	–	0 % of Vmax	–	–	2	–
COc1ccc(-c2cnc3nc(N)nc(N(Cc4ccccc4)Cc4ccccc4)c3n2)cc1 [Example 21, 2-amino-4-(dibenzylamino)-6-(4-methoxyphenyl)-pteridine]	68 ± 2 % of control	0 ± 0.05 % of Vmax	81 ± 6 % of control	27 ± 1 % of control	–	–
CCCN(CCC)c1nc(N)nc2c1NC(c1ccccc1)CN2.Cl.Cl.Cl.O (centres unmarked) [Example 46, 2-amino-4-(di-n-propylamino)-6-phenyl-5,6,7,8-tetrahydropteridine trihydrochloride hydrate]	27 ± 0.2 % of control	8 ± 0.05 % of Vmax	68 ± 1 % of control	1 ± 0.1 % of control	–	–
2-amino-4-(diethylamino)-6-(4-chlorophenyl)-5,6,7,8-tetrahydropteridine dihydrochloride hemi-hydrate [Example 48]	27 ± 1 % of control	0 % of Vmax	74 ± 4 % of control	2 ± 0 % of control	8	IC50 ([2]; human NOS-III): 45.4 µM; Ratio NOS-III/I ([2]; ratio of IC50 values NOS-III/NOS-I): 1.1; IC50 ([4]; human NOS-II, enzyme inhibition not complete up to 300 μM, IC50 values extrapolated): 300 µM; Ratio NOS-II/I ([4]; ratio of IC50 values NOS-II/NOS-I): 7.2; IC50 [5]: 41.5 µM
